Here are results for 5 compounds from PMC11198849, “Expression and purification of human neutrophil proteinase 3 from insect cells and characterization of ligand binding” (PLOS ONE, 2024).

Values joined by “and” are separate entries in the source; they are usually repeats but may differ in a detail not shown here. Equal entries are not always repeated. Where two headings read alike, the source gives them in different places.

Experiment [1] addresses T1, rPR3 (Homo sapiens, UniProt P24158).
T1 construct: TEV cleavage site (C); 6x His-tag (C); made in house; host or cells: Spodoptera frugiperda Sf9 (baculovirus), secreted
T1 sequence (P24158 28-248 limits assumed): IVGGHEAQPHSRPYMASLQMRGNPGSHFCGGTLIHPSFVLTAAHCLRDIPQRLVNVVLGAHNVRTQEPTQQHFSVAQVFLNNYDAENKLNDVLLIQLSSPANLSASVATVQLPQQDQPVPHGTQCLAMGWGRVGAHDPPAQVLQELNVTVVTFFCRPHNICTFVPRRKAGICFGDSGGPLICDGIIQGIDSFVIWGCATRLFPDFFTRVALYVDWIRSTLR
Put plainly: SPR binding assay on biotinylated rPR3. As to conditions: for SPR binding behaviour towards rPR3 (in words): sensorgrams Fig 5. A general note: In SPR one partner is held on a chip, and binding of the other changes the refractive index at the surface.

The next experiment has as its target T2, hPR3 (Homo sapiens, UniProt P24158).
T2 construct: Enzymes purified from human neutrophiles (hPR3 and hNE); purchased Athens Research and Technology; host or cells: human neutrophils
T2 sequence (P24158 28-248 limits assumed): T1 sequence (P24158 28-248 limits assumed)
The experiment in a line: Fluorescence-based enzymatic activity assay with hPR3 (FRET peptide Abz-VADnVADYQ-EDDnp). It counts as biochemical.

A further experiment relates to PR3. The following applies: cited from earlier work.
In experiment [2] the target is T1, rPR3. The experiment in a line: Fluorescence-based enzymatic activity assay with rPR3 (FRET peptide Abz-VADnVADYQ-EDDnp). It counts as biochemical.
Experimental: (§1) The reaction was started by adding the FRET peptide (Abz-VADnVADYQ-EDDnp) at a final concentration of 5 μM. The fluorescent signal (excitation filter 320, emission filter 420) was read every 30 s for 30 min at 30°C with a fluorescent plate reader (Tecan Spark) and the enzymatic activity was measured from the initial linear portion of the slope (fluorescent signal/min) of the time-course curve of reaction progress.
(§2) Data were fitted using nonlinear regression analysis (GraphPad Prism v.9) to determine the IC50 values.
Experiment [3] deals with α1-antitrypsin (Homo sapiens) (UniProt P01009). As to conditions: cited from earlier work.
α1-antitrypsin (Homo sapiens), sequence (P01009 25-418): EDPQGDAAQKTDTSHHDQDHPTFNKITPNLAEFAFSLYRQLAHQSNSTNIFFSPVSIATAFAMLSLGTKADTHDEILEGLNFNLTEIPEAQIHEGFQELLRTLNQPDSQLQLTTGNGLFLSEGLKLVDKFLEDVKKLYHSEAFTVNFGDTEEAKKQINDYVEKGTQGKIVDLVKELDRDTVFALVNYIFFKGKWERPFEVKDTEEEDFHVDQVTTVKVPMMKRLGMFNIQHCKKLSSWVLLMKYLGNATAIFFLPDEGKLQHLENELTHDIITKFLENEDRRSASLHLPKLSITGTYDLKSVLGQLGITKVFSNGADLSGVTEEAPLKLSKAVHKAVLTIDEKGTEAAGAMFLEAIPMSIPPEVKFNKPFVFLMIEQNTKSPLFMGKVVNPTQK
Another experiment addresses T3, hNE (Homo sapiens, UniProt P08246).
T3 construct: Enzymes purified from human neutrophiles (hPR3 and hNE); purchased Athens Research and Technology; host or cells: human neutrophils
T3 sequence (P08246 30-247 limits assumed): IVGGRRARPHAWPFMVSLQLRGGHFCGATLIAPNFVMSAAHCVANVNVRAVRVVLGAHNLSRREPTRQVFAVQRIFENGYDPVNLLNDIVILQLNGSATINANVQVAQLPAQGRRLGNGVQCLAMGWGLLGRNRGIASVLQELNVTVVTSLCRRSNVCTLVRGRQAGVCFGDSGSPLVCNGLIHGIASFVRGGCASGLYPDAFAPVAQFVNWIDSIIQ
Put plainly: Fluorescence-based enzymatic activity assay with hNE (MeOSuc-AAPV-AMC substrate). It counts as biochemical. As to conditions: for %Relative activity of enzyme: hNE, Rep1-Rep3.

The mark [4] stands for this setting: mean ± SD (n = 3), read-out: IC50 hPR3.
The mark [5] stands for this setting: mean ± SD (n = 3), read-out: IC50 rPR3.
Where [6] appears, read: affinity data, single replicates Rep1-Rep3, read-out: Steady state KD.
Setting [7] is: steady state, average and SD of triplicates, read-out: Steady state KD.
Setting [8] is: IC50 replicates Rep1-Rep3, read-out: hPR3 IC50.
[9] abbreviates: IC50 replicates Rep1-Rep3, read-out: rPR3 IC50.

Experimental for hNE: The reaction was started by adding the fluorogenic substrate (MeOSuc-AAPV-AMC) at a final concentration of 5 μM. The fluorescent signal (excitation filter 360, emission filter 460) was read as described above for PR3.
as §2
Experimental for hPR3: as §1, §2

One may read the IC50 as the concentration needed to halve the response being measured. Turning to “α1-antitrypsin: endogenous serine protease inhibitor, also denoted SERPIN; purchased from Sigma-Aldrich”, the “SPR binding behaviour towards rPR3 (in words)” value with rPR3 [1] is recorded as “hardly dissociated”. Further, the IC50 with hPR3 (IC50 replicates Rep1-Rep3, listed as a1-antitrypsin, read-out: hPR3 IC50) was 15.8 nM and 15.5 nM and 14.6 nM; with hPR3 (setting [4]) it was 15 ± 1 nM; with rPR3 [2] (IC50 replicates Rep1-Rep3, listed as a1-antitrypsin, read-out: rPR3 IC50), 15.3 nM and 14.7 nM and 13.5 nM; with rPR3 [2] (setting [5]) it was 14 ± 1 nM. The “first-order rate constant k2 (EI* to irreversible EI)” value in the experiment on PR3 is 0.04 s⁻¹.

The Ki is the equilibrium dissociation constant of an inhibitor or competing ligand from its target. As to Proteinase 3 (from UniProt P24158), the Ki in experiment [3] is 38 nM.

By Kd is commonly meant a measure of binding affinity in units of concentration. As for `Cc1c(-c2ccnn2C)cc(C(=O)NCc2ccc(S(C)(=O)=O)cn2)c(=O)n1-c1cccc(C(F)(F)F)c1` [Alvelestat], the equilibrium dissociation constant (Kd) on rPR3 [1] (setting [6]) was 1.95e-05 M and 1.26e-05 M and 8.36e-06 M; on rPR3 [1] (setting [7]) it was 1.35e-05 ± 5.6e-06 M. At rPR3 [1], the “SPR binding behaviour towards rPR3 (in words)” value was “weak rPR3 binder with fast association and dissociation rates”. The IC50 on hNE (IC50 replicates Rep1-Rep3) was 10.7 nM and 12.1 nM and 11.6 nM. The “%Relative activity of enzyme” value at hNE (inhibitor 1.95 nM) is 78.8834% and 84.934% and 85.1448%; on hNE (inhibitor 3.9 nM), 78.3028% and 76.8727%; at hNE (inhibitor 7.8 nM), 61.4733% and 58.7939% and 60.1294%; at hNE (inhibitor 15.6 nM), 40.7947% and 40.9606% and 39.7611%; at hNE (inhibitor 31.25 nM) it was 27.1224% and 29.7155% and 27.7611%; on hNE (inhibitor 62.5 nM) it was 15.0503% and 20.2323% and 16.5108%. In addition, the “%Relative activity of enzyme” value at hNE (inhibitor 125 nM) is 9.7027% and 8.522% and 9.4691%.

With `CC(C)(C)C(=O)Oc1ccc(S(=O)(=O)Nc2ccccc2C(=O)NCC(=O)O)cc1` [Sivelestat], the “SPR binding behaviour towards rPR3 (in words)” value at rPR3 [1] is recorded as “hardly dissociated”. Besides, the half-maximal inhibitory concentration (IC50) on hPR3 (setting [8]) was 33.6 nM and 34.1 nM and 30.4 nM; on hPR3 (setting [4]), 33 ± 2 nM; at rPR3 [2] (setting [9]), 35.8 nM and 29.5 nM and 30.1 nM; on rPR3 [2] (setting [5]), 32 ± 4 nM.

For `CC1=C(C#N)[C@@H](c2ccc(C#N)cc2S(C)(=O)=O)N(C)C(=O)N1c1cccc(C(F)(F)F)c1` [BAY-85-8501], the dissociation constant Kd on rPR3 [1] (1:1 binding kinetic model, average and SD of triplicates, read-out: KD) is 1.4e-08 M; at rPR3 [1] (affinity data, average of Rep1-Rep3, read-out: Steady state KD (M), Average) it was 2.87e-08 M; at rPR3 [1] (setting [6]), 2.6e-08 M and 4.4e-08 M and 1.6e-08 M; on rPR3 [1] (average of Rep1-Rep3, read-out: KD (M), kinetics 1:1, Average) it was 1.37e-08 M; on rPR3 [1] (single replicates Rep1-Rep3, read-out: KD (M), kinetics 1:1), 1.37e-08 M and 1.09e-08 M and 1.66e-08 M; at rPR3 [1] (setting [7]), 3e-08 ± 1e-08 M. The concentration for half-maximal inhibition (IC50) on hPR3 (setting [8]) was 24.3 nM and 24.7 nM and 31.5 nM; on hPR3 (setting [4]), 27 ± 4 nM; on rPR3 [2] (setting [9]) it was 67.7 nM and 55 nM and 53.6 nM; at rPR3 [2] (setting [5]), 59 ± 8 nM. In addition, the Ki at rPR3 [2] (Cheng-Prusoff equation, literature Km 27.4 μM, read-out: Ki derived from the IC50 value) amounted to 50 nM.
